In assay [1] the target is T1, human OXGR1 (Homo sapiens, UniProt Q96P68). Nature of the assay: Aequorin assay (calcium mobilization) in HEK293 cells overexpressing human OXGR1. It is filed as cell-based. The protocol:
(§1) Thirty-six hours after transfection, cells were maintained in serum-free medium for 12 hours and then loaded with 5 μM coelenterazine for 3 hours. Cells were trypsinized and resuspended at a density of 5 × 10^5 cells/mL in HBSS supplemented with 10 mM HEPES and 0.5% BSA. Cell suspensions of 100 μL were aliquoted into 96-well plates.
A general note: Calcium assays in cells follow changes in intracellular calcium, usually with a dye or a luminescent sensor.

Assay [2] deals with T1, human OXGR1. Nature of the assay: Fluo-4 assay in HEK293 cells expressing human OXGR1. It counts as cell-based. The method, then: For the Fluo-4AM assay, OXGR1-expressing cells were loaded with 2 μM Fluo-4AM for 30 minutes at 37°C. Excess Fluo-4AM was then washed off with HBSS buffer. After incubation at 37°C for another 10 minutes, cells were transferred onto a 96-well plate.

The target of a further assay is T2, FLAG-tagged OXGR1 (Homo sapiens, UniProt Q96P68).
T2 construct: expressed in transfected cells
Nature of the assay: Endocytosis assay of FLAG-tagged OXGR1 in HEK293 cells. It counts as cell-based. The conditions noted are these: WT OXGR1, within 10 minutes of ligand treatment. The method, then: For endocytosis assays, HEK293 cells stably expressing FLAG-OXGR1 were chilled on ice in DMEM medium supplemented with 30 mM HEPES for 10 minutes. […] Unbound antibody was then washed off with prechilled HBSS buffer. […] After ligand stimulation, cells were fixed and permeabilized. Subcellular localization of FLAG-tagged OXGR1 was detected using FITC-donkey anti-rabbit antibody (Invitrogen, Thermo Fisher Scientific), and nuclei were stained with DAPI (MilliporeSigma). Immunofluorescence images were captured with a Leica SP8 laser-scanning confocal microscope.

The next assay addresses T3, mouse OXGR1 (Mus musculus, UniProt Q6IYF8).
T3 construct: expressed in transfected cells; host or cells: HEK293
Nature of the assay: Aequorin assay (calcium mobilization) in HEK293 cells overexpressing mouse OXGR1. It is filed as cell-based. The conditions noted are these: EC50, aequorin assay, mOXGR1 in HEK293 cells. The protocol:
as §1

The next assay relates to mouse trachea. Nature of the assay: Ex vivo trachea culture, cilia beating-derived fluorescent bead movement. The conditions noted are these: 500 μM ITA or 100 μM ATP. The method, then: Tracheas were harvested from mice and cut longitudinally through the middle of the trachealis muscle to expose the lumen of the trachea. Tracheas were then transferred into HBSS buffer and equilibrated for 30 minutes. With the lumen facing down, trachea tissues were transferred into 2 mL HBSS buffer supplemented with 0.5% methylcellulose, red fluorescent beads, 30 mM HEPES, and the indicated ligand. Bead flow was monitored with the BioTek Cytation 5 cell imaging system. Twenty individual beads were tracked from different fields of view in each condition, and the speed of each bead was calculated by […].

Assay [3] relates to primary respiratory epithelial cells from Oxgr1+/+ and Oxgr1–/– mice. Nature of the assay: Calcium imaging (Fluo-4AM) of primary mouse trachea epithelial cells. Particulars: 670 μM ITA or 100 μM ATP. It is filed as cell-based. The method, then:
For calcium imaging of human primary bronchial epithelial cells, cells were infected with 2 CRISPR lentiviruses targeting OXGR1 and cultured for 2 days before calcium imaging. For calcium imaging of primary mouse cells, freshly isolated mouse tracheas were cut into rings, placed onto collagen-coated dishes, and cultured in DMEM supplemented with 10% FBS. Cells were loaded with 5 μM Fluo-4AM for 30 minutes in HBSS buffer, washed twice, and incubated for another 15 minutes for fully deesterification of Fluo-4AM. Cells loaded with Fluo-4AM were monitored with the BioTek Cytation 5 Cell imaging system every 300 ms for a total of 1.5 minutes after ligand administration. Fluorescence was quantified with ImageJ software (NIH).

Here are results for three compounds from paper PMC10014103, “The immunometabolite itaconate stimulates OXGR1 to promote mucociliary clearance during the pulmonary innate immune response” (The Journal of Clinical Investigation, 2023).

Structures are written as SMILES.

T3 sequence (Q6IYF8 whole entry): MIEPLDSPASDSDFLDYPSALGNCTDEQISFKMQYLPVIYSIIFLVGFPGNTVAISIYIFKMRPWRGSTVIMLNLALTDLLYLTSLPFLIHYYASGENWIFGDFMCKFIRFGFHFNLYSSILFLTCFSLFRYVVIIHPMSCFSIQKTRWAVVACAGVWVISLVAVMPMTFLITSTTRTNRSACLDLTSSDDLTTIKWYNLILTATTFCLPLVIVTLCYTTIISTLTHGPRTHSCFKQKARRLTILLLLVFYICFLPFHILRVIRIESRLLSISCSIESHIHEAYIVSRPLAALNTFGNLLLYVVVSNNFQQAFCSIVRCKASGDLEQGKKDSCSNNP

In the case of `O=C(O)CCC(=O)C(=O)O` [α-KG, α-ketoglutaric acid, reference compound], the EC50 (commonly the midpoint of the concentration-response curve) on human OXGR1 [1] is 248 ± 58.6 µM; on human OXGR1 [2], 161 ± 34.7 µM; on mouse OXGR1, 241 ± 61.1 µM. In addition, the “endocytosis of OXGR1” value at FLAG-tagged OXGR1 is listed as “rapid endocytosis of OXGR1 was triggered”.
On to `CCCCC/C=C\C\C=C/C=C/C=C/[C@@H](SC[C@H](N)C(=O)O)[C@@H](O)CCCC(=O)O` [LTE4, Leukotriene E4, reference compound], for which, on human OXGR1 [1] (HEK293 cells overexpressing human OXGR1, aequorin), the “calcium response (agonist effect)” value is reported as “failed to show any agonizing effect”. Also, on human OXGR1 [1] (addition of LTE4, OXGR1-expressing HEK293 cells), the “effect on α-KG– or ITA-triggered intracellular Ca2+ release” value was “did not prevent, and even moderately enhanced”. Also, the “endocytosis of OXGR1” value on FLAG-tagged OXGR1 is “failed to show any agonizing effect”.
On to `Nc1ncnc2c1ncn2[C@@H]1O[C@H](COP(=O)(O)OP(=O)(O)OP(=O)(O)O)[C@@H](O)[C@H]1O` [ATP, reference compound], for which, in the assay with mouse trachea, the “movement of beads, trachea from Oxgr1+/+ mice” value is recorded as “comparable speed of bead movement” and the “movement of beads, trachea from Oxgr1–/– mice” value is given as “comparable speed of bead movement”. In addition, in assay [3], the “calcium mobilization, Oxgr1+/+ cells” value is recorded as “normal calcium release” and the “calcium mobilization, Oxgr1–/– cells” value was “normal calcium release”.
